Measurements reported in ChEMBL document CHEMBL1144409, “Synthesis of new quinoxaline-2-carboxylate 1,4-dioxide derivatives as anti-Mycobacterium tuberculosis agents” (J Med Chem, 2005).
Converted amounts (≈) assume the structure as drawn.

Columns and labels:
Format in all cases: functional
[1] = tested on: Mycobacterium tuberculosis; assay: In vitro minimum inhibitory concentration value against rifampin resistant Mycobacterium tuberculosis in alamar assay
[2] = tested on: Mycobacterium tuberculosis; assay: In vitro minimum inhibitory concentration value against thiacetazone resistant Mycobacterium tuberculosis in alamar assay
[3] = tested on: Mycobacterium tuberculosis; assay: In vitro minimum inhibitory concentration value against kanamycin resistant Mycobacterium tuberculosis in alamar assay
[4] = tested on: Mycobacterium tuberculosis; assay: Ratio of the MIC value of the Mycobacterium tuberculosis ethionamide resistant strain to H37Rv strain was determined
[5] = tested on: Mycobacterium tuberculosis; assay: Ratio of the MIC value of the Mycobacterium tuberculosis kanamycin resistant strain to H37Rv strain was determined
[6] = tested on: Mycobacterium tuberculosis; assay: Ratio of the MIC value of the Mycobacterium tuberculosis isoniazid resistant strain to H37Rv strain was determined
[7] = tested on: Mycobacterium tuberculosis; assay: In vitro minimum inhibitory concentration value against isoniazid resistant Mycobacterium tuberculosis in alamar assay
[8] = tested on: Mycobacterium tuberculosis; assay: In vitro minimum inhibitory concentration value against ethionamide resistant Mycobacterium tuberculosis in alamar assay
[9] = tested on: Mycobacterium tuberculosis; assay: Ratio of the MIC value of the Mycobacterium tuberculosis ethambutol resistant strain to H37Rv strain was determined
[10] = tested on: Mycobacterium tuberculosis; assay: Ratio of the MIC value of the Mycobacterium tuberculosis thiacetazone resistant strain to H37Rv strain was determined
[11] = tested on: Mycobacterium tuberculosis; assay: Ratio of the MIC value of the Mycobacterium tuberculosis ciprofloxacin resistant strain to H37Rv strain was determined
[12] = tested on: Mycobacterium tuberculosis; assay: In vitro minimum inhibitory concentration value against ethambutol resistant Mycobacterium tuberculosis in alamar assay
[13] = tested on: Mycobacterium tuberculosis; assay: In vitro minimum inhibitory concentration value against ciprofloxacin resistant Mycobacterium tuberculosis in alamar assay
[14] = tested on: Mycobacterium tuberculosis; assay: Ratio of the MIC value of the Mycobacterium tuberculosis rifampin resistant strain to H37Rv strain was determined

Work on COC(=O)c1c(Cc2ccccc2)[n+]([O-])c2cc(Cl)c(Cl)cc2[n+]1[O-] yielded an MIC [1] of no more than 3.13 µg/mL, an MIC [2] of no more than 3.13 µg/mL and an MIC [3] of no more than 3.13 µg/mL. The Ratio [4] was “>=2 ug ml-1”, the Ratio [5] was 1 µg/mL and the Ratio [6] was “>=2 ug ml-1”. For the same compound, the MIC [7] was 6.25 µg/mL (≈ 16.5 µM), the MIC [8] was 6.25 µg/mL (≈ 16.5 µM) and the Ratio [9] was 1 µg/mL. For the same compound, the Ratio [10] was 1 µg/mL, the Ratio [11] was “>=3.99 ug ml-1” and the MIC [12] was no more than 3.13 µg/mL. The MIC [13] was 12.5 µg/mL (≈ 33 µM) and the Ratio [14] was 1 µg/mL.
In the case of CCc1c(C(=O)OC)[n+]([O-])c2cc(C)c(C)cc2[n+]1[O-], the MIC [1] is reported as 0.39 µg/mL (≈ 1.41 µM), the MIC [2] is reported as 0.78 µg/mL (≈ 2.82 µM) and the MIC [3] is reported as 0.39 µg/mL (≈ 1.41 µM). It also gave a Ratio [4] of 2 µg/mL, a Ratio [5] of 1 µg/mL and a Ratio [6] of 4 µg/mL. For the same compound, the MIC [7] was 1.56 µg/mL (≈ 5.65 µM), the MIC [8] was 0.78 µg/mL (≈ 2.82 µM) and the Ratio [9] was 2 µg/mL. The Ratio [10] was 2 µg/mL, the Ratio [11] was 1 µg/mL and the MIC [12] was 0.78 µg/mL (≈ 2.82 µM). The MIC [13] was 0.39 µg/mL (≈ 1.41 µM) and the Ratio [14] was 1 µg/mL.
